Peptide text beside a SMILES is read from it.

One assay has as its target T1, CRF2R (Homo sapiens, UniProt Q13324).
T1 sequence (Q13324 1-411): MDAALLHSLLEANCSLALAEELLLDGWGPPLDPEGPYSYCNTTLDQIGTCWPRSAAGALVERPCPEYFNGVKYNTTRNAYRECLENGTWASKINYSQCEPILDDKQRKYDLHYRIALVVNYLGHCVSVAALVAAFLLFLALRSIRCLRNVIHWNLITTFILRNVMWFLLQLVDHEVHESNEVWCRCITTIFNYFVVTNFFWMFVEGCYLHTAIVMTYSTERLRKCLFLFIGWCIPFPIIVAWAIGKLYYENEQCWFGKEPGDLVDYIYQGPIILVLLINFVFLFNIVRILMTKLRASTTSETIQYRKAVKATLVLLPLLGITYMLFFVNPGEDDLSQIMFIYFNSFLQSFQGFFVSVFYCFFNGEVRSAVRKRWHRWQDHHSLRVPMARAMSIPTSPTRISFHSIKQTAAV
Nature of the assay: CRF2R agonist activity (EC50, Emax), called comparative CRF binding. The format is cell-based. The conditions noted are these: read-out: CRF2R EC50. Put shortly:
(§1)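 Cells expressing only CRF1R or only CRF2R (or recombinant receptor) are contacted with peptide or vehicle control. Receptor activation is read as cAMP induction, measured in cell lysates or via a cAMP-responsive-element reporter gene such as luciferase.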

The next assay addresses T2, CRF1R (Homo sapiens, UniProt P34998).
T2 sequence (P34998 24-415): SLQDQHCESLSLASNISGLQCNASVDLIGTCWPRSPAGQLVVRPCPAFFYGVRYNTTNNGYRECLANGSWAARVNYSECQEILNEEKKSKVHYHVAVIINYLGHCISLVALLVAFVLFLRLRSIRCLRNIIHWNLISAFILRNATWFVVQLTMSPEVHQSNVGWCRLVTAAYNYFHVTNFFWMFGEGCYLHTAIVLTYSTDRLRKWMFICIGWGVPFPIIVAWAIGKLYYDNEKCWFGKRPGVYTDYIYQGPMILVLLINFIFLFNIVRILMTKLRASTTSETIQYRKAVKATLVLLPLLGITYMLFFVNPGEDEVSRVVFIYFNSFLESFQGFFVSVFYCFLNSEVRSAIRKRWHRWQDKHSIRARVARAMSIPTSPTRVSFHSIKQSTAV
The assay can be described thus: CRF1R agonist activity (EC50, Emax), called comparative CRF binding. The format is cell-based. To be noted: read-out: CRF1R EC50. A digest of the protocol: as §1

Regarding `CC[C@H](C)[C@H](NC(=O)[C@H](C)NC(=O)[C@H](CC(N)=O)NC(=O)[C@H](CCC(N)=O)NC(=O)[C@H](CCC(=O)O)NC(=O)[C@H](C)NC(=O)[C@H](CCCNC(=N)N)NC(=O)[C@H](CCC(=O)O)NC(=O)[C@H](CCCNC(=N)N)NC(=O)[C@H](CCC(N)=O)NC(=O)[C@H](CO)NC(=O)[C@H](CCC(N)=O)NC(=O)[C@@H](NC(=O)[C@H](CCCNC(=N)N)NC(=O)[C@H](C)NC(=O)[C@H](CC(C)C)NC(=O)[C@H](CCC(=O)O)NC(=O)[C@H](CC(C)C)NC(=O)[C@H](CC(C)C)NC(=O)[C@@H](NC(=O)[C@H](CCCNC(=N)N)NC(=O)[C@H](CC(C)C)NC(=O)[C@H](CC(C)C)NC(=O)[C@H](Cc1ccccc1)NC(=O)[C@H](CC(C)C)NC(=O)[C@@H]1CCCN1C(=O)[C@H](CC(C)C)NC(=O)[C@H](CC(=O)O)NC(=O)[C@@H](NC(=O)[C@H](CO)NC(=O)[C@H](CC(C)C)NC(=O)[C@H](CO)NC(=O)[C@@H]1CCCN1C(=O)[C@H](CC(N)=O)NC(=O)[C@@H](N)CC(=O)O)[C@@H](C)CC)[C@@H](C)O)[C@@H](C)O)C(=O)N[C@H](C(=O)N[C@@H](Cc1ccccc1)C(=O)N[C@@H](C)C(=O)N[C@@H](CO)C(=O)N[C@H](C(N)=O)C(C)C)[C@@H](C)CC` [compound 178] (H-DNPSLSIDLPLFLLRTLLELARTQSQRERAEQNAIIFASV-NH2; N-terminus assumed), the values for the EC50 on CRF2R and on CRF1R were 5.17 nM and no less than 1000 nM, respectively.
For `CC[C@H](C)[C@H](NC(=O)[C@H](C)NC(=O)[C@H](CC(N)=O)NC(=O)[C@H](CCC(N)=O)NC(=O)[C@H](CCC(=O)O)NC(=O)[C@H](C)NC(=O)[C@H](CCCNC(=N)N)NC(=O)[C@H](CCC(=O)O)NC(=O)[C@H](CCCNC(=N)N)NC(=O)[C@H](CCC(N)=O)NC(=O)[C@H](CO)NC(=O)[C@H](CCC(N)=O)NC(=O)[C@@H](NC(=O)[C@H](CCCNC(=N)N)NC(=O)[C@H](C)NC(=O)[C@H](CC(C)C)NC(=O)[C@H](CCC(=O)O)NC(=O)[C@H](CC(C)C)NC(=O)[C@H](CC(C)C)NC(=O)[C@@H](NC(=O)[C@H](CCCNC(=N)N)NC(=O)[C@H](CC(C)C)NC(=O)[C@H](CC(C)C)NC(=O)[C@H](Cc1c[nH]cn1)NC(=O)[C@H](CC(C)C)NC(=O)[C@@H]1CCCN1C(=O)[C@H](CC(C)C)NC(=O)[C@H](CC(=O)O)NC(=O)[C@@H](NC(=O)[C@H](CO)NC(=O)[C@H](CC(C)C)NC(=O)[C@H](CO)NC(=O)[C@@H]1CCCN1C(=O)[C@H](CC(N)=O)NC(=O)[C@@H](N)CC(=O)O)[C@@H](C)CC)[C@@H](C)O)[C@@H](C)O)C(=O)N[C@H](C(=O)N[C@@H](Cc1ccccc1)C(=O)N[C@@H](C)C(=O)N[C@@H](CO)C(=O)N[C@H](C(N)=O)C(C)C)[C@@H](C)CC` [compound 179] (H-DNPSLSIDLPLHLLRTLLELARTQSQRERAEQNAIIFASV-NH2; N-terminus assumed), in that order: 10.2 nM and 477 nM.
For the molecule `CC[C@H](C)[C@H](NC(=O)[C@H](C)NC(=O)[C@H](CC(N)=O)NC(=O)[C@H](CCC(N)=O)NC(=O)[C@H](CCC(=O)O)NC(=O)[C@H](C)NC(=O)[C@H](CCCNC(=N)N)NC(=O)[C@H](CCC(=O)O)NC(=O)[C@H](CCCNC(=N)N)NC(=O)[C@H](CCC(N)=O)NC(=O)[C@H](CO)NC(=O)[C@H](CCC(N)=O)NC(=O)[C@@H](NC(=O)[C@H](CCCNC(=N)N)NC(=O)[C@H](C)NC(=O)[C@H](CC(C)C)NC(=O)[C@H](CCC(=O)O)NC(=O)[C@H](CC(C)C)NC(=O)[C@H](CC(C)C)NC(=O)[C@@H](NC(=O)[C@H](CCCNC(=N)N)NC(=O)[C@H](CC(C)C)NC(=O)[C@H](CC(C)C)NC(=O)[C@@H](NC(=O)[C@H](Cc1ccccc1)NC(=O)[C@@H]1CCCN1C(=O)[C@H](CC(C)C)NC(=O)[C@H](CC(=O)O)NC(=O)[C@@H](NC(=O)[C@H](CO)NC(=O)[C@H](CC(C)C)NC(=O)[C@H](CO)NC(=O)[C@@H]1CCCN1C(=O)[C@H](CC(N)=O)NC(=O)[C@@H](N)CC(=O)O)[C@@H](C)CC)[C@@H](C)CC)[C@@H](C)O)[C@@H](C)O)C(=O)N[C@H](C(=O)N[C@@H](Cc1ccccc1)C(=O)N[C@@H](C)C(=O)N[C@@H](CO)C(=O)N[C@H](C(N)=O)C(C)C)[C@@H](C)CC` [compound 181] (H-DNPSLSIDLPFILLRTLLELARTQSQRERAEQNAIIFASV-NH2; N-terminus assumed), the EC50 – broadly, the concentration that produces a half-maximal response – on CRF2R was found to be 5.22 nM; on CRF1R, 154 nM.
On to `CC[C@H](C)[C@H](NC(=O)[C@H](C)NC(=O)[C@H](CC(N)=O)NC(=O)[C@H](CCC(N)=O)NC(=O)[C@H](CCC(=O)O)NC(=O)[C@H](C)NC(=O)[C@H](CCCNC(=N)N)NC(=O)[C@H](CCC(=O)O)NC(=O)[C@H](CCCNC(=N)N)NC(=O)[C@H](CCC(N)=O)NC(=O)[C@H](CO)NC(=O)[C@H](CCC(N)=O)NC(=O)[C@@H](NC(=O)[C@H](CCCNC(=N)N)NC(=O)[C@H](C)NC(=O)[C@H](CC(C)C)NC(=O)[C@H](CCC(=O)O)NC(=O)[C@H](CC(C)C)NC(=O)[C@H](CC(C)C)NC(=O)[C@@H](NC(=O)[C@H](CCCNC(=N)N)NC(=O)[C@H](CC(C)C)NC(=O)[C@H](CC(C)C)NC(=O)[C@H](Cc1ccc(O)cc1)NC(=O)[C@H](Cc1ccccc1)NC(=O)[C@@H]1CCCN1C(=O)[C@H](CC(C)C)NC(=O)[C@H](CC(=O)O)NC(=O)[C@@H](NC(=O)[C@H](CO)NC(=O)[C@H](CC(C)C)NC(=O)[C@H](CO)NC(=O)[C@@H]1CCCN1C(=O)[C@H](CC(N)=O)NC(=O)[C@@H](N)CC(=O)O)[C@@H](C)CC)[C@@H](C)O)[C@@H](C)O)C(=O)N[C@H](C(=O)N[C@@H](Cc1ccccc1)C(=O)N[C@@H](C)C(=O)N[C@@H](CO)C(=O)N[C@H](C(N)=O)C(C)C)[C@@H](C)CC` [compound 183] (H-DNPSLSIDLPFYLLRTLLELARTQSQRERAEQNAIIFASV-NH2; N-terminus assumed), for which the EC50 at CRF2R worked out at 7.93 nM; on CRF1R, 415 nM.
`CC[C@H](C)[C@H](N)C(=O)N[C@H](C(=O)N[C@@H](CC(C)C)C(=O)N[C@@H](CO)C(=O)N[C@@H](CC(C)C)C(=O)N[C@@H](CC(=O)O)C(=O)N[C@H](C(=O)N[C@H](C(=O)N[C@H](C(=O)NCC(=O)N[C@@H](CC(C)C)C(=O)N[C@@H](CC(C)C)C(=O)N[C@@H](CCC(N)=O)C(=O)N[C@H](C(=O)N[C@@H](CC(C)C)C(=O)N[C@@H](CC(C)C)C(=O)N[C@@H](CCC(=O)O)C(=O)N[C@@H](CCC(N)=O)C(=O)N[C@@H](C)C(=O)N[C@@H](CCCNC(=N)N)C(=O)N[C@@H](C)C(=O)N[C@@H](CCCNC(=N)N)C(=O)N[C@@H](C)C(=O)N[C@@H](C)C(=O)N[C@@H](CCCNC(=N)N)C(=O)N[C@@H](CCC(=O)O)C(=O)N[C@@H](CCC(N)=O)C(=O)N[C@@H](C)C(=O)N[C@H](C(=O)N[C@H](C(=O)N[C@@H](CC(N)=O)C(=O)N[C@@H](C)C(=O)N[C@@H](CCCNC(=N)N)C(=O)N[C@H](C(=O)N[C@@H](CC(C)C)C(=O)N[C@@H](C)C(=O)N[C@@H](CCCNC(=N)N)C(=O)N[C@H](C(N)=O)C(C)C)[C@@H](C)CC)[C@@H](C)O)[C@@H](C)O)[C@@H](C)CC)[C@@H](C)CC)C(C)C)C(C)C)C(C)C` [compound 214] (H-IVLSLDVVIGLLQILLEQARARAAREQATTNARILARV-NH2; N-terminus assumed): the EC50 on CRF2R is 74.3 nM; on CRF1R it was no less than 100 nM.
Take `CC[C@H](C)[C@H](NC(=O)[C@H](C)NC(=O)[C@H](CC(N)=O)NC(=O)[C@H](CCC(N)=O)NC(=O)[C@H](CCC(=O)O)NC(=O)[C@H](C)NC(=O)[C@H](CCCNC(=N)N)NC(=O)[C@H](CCC(=O)O)NC(=O)[C@H](CCCNC(=N)N)NC(=O)[C@H](CCC(N)=O)NC(=O)[C@H](CO)NC(=O)[C@H](CCC(N)=O)NC(=O)[C@@H](NC(=O)[C@H](CCCNC(=N)N)NC(=O)[C@H](C)NC(=O)[C@H](CC(C)C)NC(=O)[C@H](CCC(=O)O)NC(=O)[C@H](CC(C)C)NC(=O)[C@H](CC(C)C)NC(=O)[C@@H](NC(=O)[C@H](CCCNC(=N)N)NC(=O)[C@H](CC(C)C)NC(=O)[C@H](CC(C)C)NC(=O)[C@H](Cc1ccc(O)cc1)NC(=O)[C@H](Cc1ccc(O)cc1)NC(=O)[C@@H]1CCCN1C(=O)[C@H](CC(C)C)NC(=O)[C@H](CC(=O)O)NC(=O)[C@@H](NC(=O)[C@H](CO)NC(=O)[C@H](CC(C)C)NC(=O)[C@H](CO)NC(=O)[C@@H]1CCCN1C(=O)[C@H](CC(N)=O)NC(=O)[C@@H](N)CC(=O)O)[C@@H](C)CC)[C@@H](C)O)[C@@H](C)O)C(=O)N[C@H](C(=O)N[C@@H](Cc1ccccc1)C(=O)N[C@@H](C)C(=O)N[C@@H](CO)C(=O)N[C@H](C(N)=O)C(C)C)[C@@H](C)CC` [compound 263] (H-DNPSLSIDLPYYLLRTLLELARTQSQRERAEQNAIIFASV-NH2; N-terminus assumed): the values for the EC50 on CRF2R and on CRF1R were 36.2 nM and 802 nM, respectively.
